Experimental data reported in the supplement of paper PMC10307832.

Tests used:
Assay in all cases: relative viability (nuclei count vs DMSO), 5 days (fraction); higher = more cells survive
NCI-H1651 = tested on: NCI-H1651
Outline: (§1)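 Values are medians from duplicate plates. Each reflects relative viability, defined as the nuclei count of treated wells over that of vehicle wells. Lung cancer cell lines in 1536-well plates were pin-tool dosed one day after seeding with one drug alone or with a fixed anchor-drug dose plus five library-drug doses (not always all listed) in √10 steps, then fixed, stained and imaged at 4× after 5 days.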

NCI-H1648 = tested on: NCI-H1648
Outline: as §1

NCI-H650 = tested on: NCI-H650
Outline: as §1

NCI-H838 = tested on: NCI-H838
Outline: as §1

NCI-H520 = tested on: NCI-H520
Outline: as §1

PC-3 [JPC-3] = tested on: PC-3 [JPC-3]
Outline: as §1

RERF-LC-KJ = tested on: RERF-LC-KJ
Outline: as §1

NCI-H1944 = tested on: NCI-H1944
Outline: as §1

| SMILES | relative viability (NCI-H1651; first compound 0.005 µM) | relative viability (NCI-H1651; first compound 0.01581 µM) | relative viability (NCI-H1651; first compound 0.05 µM) | relative viability (NCI-H1651; first compound 0.1581 µM) | relative viability (NCI-H1651; first compound 0.5 µM) | relative viability (NCI-H1648; first compound 0.005 µM) | relative viability (NCI-H1648; first compound 0.01581 µM) | relative viability (NCI-H1648; first compound 0.05 µM) | relative viability (NCI-H1648; first compound 0.1581 µM) | relative viability (NCI-H1648; first compound 0.5 µM) | relative viability (NCI-H650; first compound 0.005 µM) | relative viability (NCI-H650; first compound 0.01581 µM) | relative viability (NCI-H650; first compound 0.05 µM) | relative viability (NCI-H650; first compound 0.1581 µM) | relative viability (NCI-H650; first compound 0.5 µM) | relative viability (NCI-H838; first compound 0.005 µM) | relative viability (NCI-H838; first compound 0.01581 µM) | relative viability (NCI-H838; first compound 0.05 µM) | relative viability (NCI-H838; first compound 0.1581 µM) | relative viability (NCI-H838; first compound 0.5 µM) | relative viability (NCI-H520; first compound 0.005 µM) | relative viability (NCI-H520; first compound 0.01581 µM) | relative viability (NCI-H520; first compound 0.05 µM) | relative viability (NCI-H520; first compound 0.1581 µM) | relative viability (NCI-H520; first compound 0.5 µM) | relative viability (PC-3 [JPC-3]; first compound 0.005 µM) | relative viability (PC-3 [JPC-3]; first compound 0.01581 µM) | relative viability (PC-3 [JPC-3]; first compound 0.05 µM) | relative viability (PC-3 [JPC-3]; first compound 0.1581 µM) | relative viability (PC-3 [JPC-3]; first compound 0.5 µM) | relative viability (RERF-LC-KJ; first compound 0.005 µM) | relative viability (RERF-LC-KJ; first compound 0.01581 µM) | relative viability (RERF-LC-KJ; first compound 0.05 µM) | relative viability (RERF-LC-KJ; first compound 0.1581 µM) | relative viability (RERF-LC-KJ; first compound 0.5 µM) | relative viability (NCI-H1944; first compound 0.005 µM) | relative viability (NCI-H1944; first compound 0.01581 µM) | relative viability (NCI-H1944; first compound 0.05 µM) | relative viability (NCI-H1944; first compound 0.1581 µM) | relative viability (NCI-H1944; first compound 0.5 µM) |
| --- | --- | --- | --- | --- | --- | --- | --- | --- | --- | --- | --- | --- | --- | --- | --- | --- | --- | --- | --- | --- | --- | --- | --- | --- | --- | --- | --- | --- | --- | --- | --- | --- | --- | --- | --- | --- | --- | --- | --- | --- |
| Nc1ccn([C@@H]2O[C@H](CO)[C@@H](O)[C@@H]2O)c(=O)n1 [Cytarabine] + CC(=O)Nc1cccc(-n2c(=O)n(C3CC3)c(=O)c3c(Nc4ccc(I)cc4F)n(C)c(=O)c(C)c32)c1 [Trametinib] (partner 0.02 µM) | 0.846 | 0.858 | 0.818 | 0.591 | 0.384 | 0.419 | 0.4 | 0.44 | 0.36 | 0.373 | 0.793 | 0.694 | 0.47 | 0.186 | 0.196 | 0.724 | 0.535 | 0.543 | 0.274 | 0.246 | 0.696 | 0.684 | 0.579 | 0.477 | 0.484 | 0.705 | 0.73 | 0.589 | 0.423 | 0.498 | 0.797 | 0.862 | 0.716 | 0.498 | 0.402 | 0.36 | 0.287 | 0.3 | 0.168 | 0.169 |
| Nc1ccn([C@@H]2O[C@H](CO)[C@@H](O)[C@@H]2O)c(=O)n1 [Cytarabine] + CC(=O)c1c(C)c2cnc(Nc3ccc(N4CCNCC4)cn3)nc2n(C2CCCC2)c1=O [Palbociclib] (partner 0.5 µM) | 0.508 | 0.514 | 0.551 | 0.374 | 0.277 | 0.29 | 0.283 | 0.263 | 0.308 | 0.273 | 0.238 | 0.227 | 0.159 | 0.157 | 0.175 | 0.228 | 0.244 | 0.209 | 0.2 | 0.149 | 0.234 | 0.223 | 0.199 | 0.177 | 0.201 | 0.546 | 0.479 | 0.489 | 0.459 | 0.463 | 0.858 | 0.882 | 0.819 | 0.517 | 0.41 | 0.283 | 0.248 | 0.207 | 0.205 | 0.16 |
